For 34 compounds, AC50 results are on record in patent US20250171437A1 (Agios Pharmaceuticals,Inc., priority 2022, published 2025).

Structures are written as SMILES.

This assay addresses T1, human PAH with the R408W mutation (A375 R408W cells) (Homo sapiens, UniProt P00439, R408W).
T1 construct: expressed in transfected cells
T1 sequence (P00439 1-452 R408W): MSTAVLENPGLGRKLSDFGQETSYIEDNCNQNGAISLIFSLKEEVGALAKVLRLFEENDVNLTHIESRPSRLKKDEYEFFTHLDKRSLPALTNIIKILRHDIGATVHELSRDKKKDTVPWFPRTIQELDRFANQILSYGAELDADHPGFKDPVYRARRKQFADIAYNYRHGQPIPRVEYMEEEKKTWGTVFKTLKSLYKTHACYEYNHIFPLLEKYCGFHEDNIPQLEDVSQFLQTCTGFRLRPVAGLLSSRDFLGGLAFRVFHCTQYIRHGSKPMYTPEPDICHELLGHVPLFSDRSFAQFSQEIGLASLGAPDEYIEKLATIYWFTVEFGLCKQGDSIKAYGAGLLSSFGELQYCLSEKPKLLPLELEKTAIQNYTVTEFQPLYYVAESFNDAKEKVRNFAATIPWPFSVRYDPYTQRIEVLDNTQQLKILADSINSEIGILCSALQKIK
In words: Cell Based Phenylalanine Flux Assay. As to conditions: 24 hrs with compound, then 20 μM sepiapterin and 800 μM 13C9,15N-Phenylalanine for 4 hours, 13C-Tyrosine by LC-MS, average where tested multiple times. In a few lines: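 AC50 is derived from LC-MS of 13C-tyrosine in the media after a 4 h pulse of 800 μM 13C9,15N-phenylalanine plus 20 μM sepiapterin. The A375 R408W PAH cells had received duplicate 10-point, 2-fold compound dilutions (0.5% DMSO) for 24 h beforehand.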

The mark [1] stands for this setting: A375 cells expressing R408W PAH.

The AC50 is the concentration giving half of the maximal activity seen. Turning to `Cc1ccc2oc(C3c4nc[nH]c4CCN3C(=O)c3nc(C)nn3C)nc2c1` (stereo not shown), the AC50 under setting [1] was in the range of 1000 to 5000 nM.

On to `O=C(c1ocnc1C(F)F)N1CCc2[nH]cnc2[C@H]1c1nc2ccc(Br)cc2o1` [Example 145, (S)-(4-(6-bromobenzo[d]oxazol-2-yl)-6,7-dihydro-1H-imidazo[4,5-c]pyridin-5(4H)-yl)(4-(difluoromethyl)oxazol-5-yl)methanone], for which the half-maximal activity concentration (AC50) (A375 R408W cells) was ≤ 500 nM. In the case of `CC(C)(F)c1nnc(C(=O)N2CCc3[nH]cnc3C2c2nc3cc(F)ccc3o2)o1` (stereo not shown), the half-maximal activity concentration (AC50) under setting [1] fell in the range of 1000 to 5000 nM. On the same count and under the same terms, for `O=C(c1cnn2cc(N3CCS(=O)(=O)CC3)ccc12)N1CCc2[nH]cnc2C1c1nc2cc(F)ccc2o1` (stereo not shown) the value was ≥ 5000 nM. Regarding `Cc1cc(F)cc2nc([C@@H]3c4nc[nH]c4CCN3C(=O)c3ocnc3C(F)F)oc12` [Example 657, (S)-(4-(difluoromethyl)oxazol-5-yl)(4-(5-fluoro-7-methylbenzo[d]oxazol-2-yl)-6,7-dihydro-1H-imidazo[4,5-c]pyridin-5(4H)-yl)methanone], the AC50 (A375 R408W cells) is ≤ 500 nM.

Take `O=C(c1oc(-c2cncnc2)nc1C(F)F)N1CCc2[nH]cnc2[C@H]1c1nc2cc(F)ccc2o1` [Example 406, (S)-(4-(difluoromethyl)-2-(pyrimidin-5-yl)oxazol-5-yl)(4-(5-fluorobenzo[d]oxazol-2-yl)-6,7-dihydro-1H-imidazo[4,5-c]pyridin-5(4H)-yl)methanone]: the AC50 (A375 R408W cells) was ≤ 500 nM. Take `Cn1nccc1C(=O)N1CCc2[nH]cnc2[C@@H]1c1nc2ccccc2o1` [Example 712, (R)-(4-(benzo[d]oxazol-2-yl)-6,7-dihydro-1H-imidazo[4,5-c]pyridin-5(4H)-yl)(1-methyl-1H-pyrazol-5-yl)methanone]: the AC50 (A375 R408W cells) was in the range of 1000 to 5000 nM.

As to `Cc1cccc2oc([C@H]3c4nc[nH]c4CCN3C(=O)c3cnc(C(C)(C)O)o3)nc12` [Example 512, (R)-(2-(2-hydroxypropan-2-yl)oxazol-5-yl)(4-(4-methylbenzo[d]oxazol-2-yl)-6,7-dihydro-1H-imidazo[4,5-c]pyridin-5(4H)-yl)methanone], the AC50 (A375 R408W cells) is 1000 to 5000 nM. Same read-out and setting: the value for `CC1CN(C(=O)c2ocnc2C(F)F)[C@H](c2nc3cccc(F)c3o2)c2nc[nH]c21` (single isomer, unassigned) [Example 803] was ≤ 500 nM; that for `Cc1cccc2nc([C@H]3c4nc[nH]c4CCN3C(=O)c3nnc(-c4cnn(C(F)F)c4)o3)oc12` [Example 871, (R)-(5-(1-(difluoromethyl)-1H-pyrazol-4-yl)-1,3,4-oxadiazol-2-yl)(4-(7-methylbenzo[d]oxazol-2-yl)-6,7-dihydro-1H-imidazo[4,5-c]pyridin-5(4H)-yl)methanone] was 1000 to 5000 nM. Regarding `O=C(c1ocnc1C(F)F)N1CCc2[nH]cnc2[C@@H]1c1nc2ccc(F)c(F)c2o1` [Example 306, (R)-(4-(6,7-difluorobenzo[d]oxazol-2-yl)-6,7-dihydro-1H-imidazo[4,5-c]pyridin-5(4H)-yl)(4-(difluoromethyl)oxazol-5-yl)methanone], the AC50 (A375 R408W cells) is 1000 to 5000 nM. In the case of `O=C(C1CN(c2ccccn2)C1)N1CCc2[nH]cnc2C1c1nc2cc(F)ccc2o1` (stereo not shown), under setting [1], the AC50 is 1000 to 5000 nM. As to `Cc1nc(-c2ccn(C)n2)oc1C(=O)N1CCc2[nH]cnc2[C@H]1c1nc2cc(F)ccc2o1` [Example 825, (S)-(4-(5-fluorobenzo[d]oxazol-2-yl)-6,7-dihydro-1H-imidazo[4,5-c]pyridin-5(4H)-yl)(4-methyl-2-(1-methyl-1H-pyrazol-3-yl)oxazol-5-yl)methanone], the half-maximal activity concentration (AC50) (A375 R408W cells) lay in the range of 1000 to 5000 nM. For `O=C(c1nnc(-c2ccncc2)o1)N1CCc2[nH]cnc2C1c1nc2cc(F)ccc2o1` (stereo not shown), under setting [1], the AC50 was 1000 to 5000 nM. Turning to `O=C(c1oc(-c2cnccn2)nc1C(F)F)N1CCc2[nH]cnc2[C@H]1c1nc2cc(F)ccc2o1` [Example 527, (S)-(4-(difluoromethyl)-2-(pyrazin-2-yl)oxazol-5-yl)(4-(5-fluorobenzo[d]oxazol-2-yl)-6,7-dihydro-1H-imidazo[4,5-c]pyridin-5(4H)-yl)methanone], for the setting “A375 R408W cells”, the AC50 was ≤ 500 nM. With `Cc1ccc2nc([C@H]3c4nc[nH]c4CCN3C(=O)c3ocnc3C(F)F)oc2c1` [Example 883, (R)-(4-(difluoromethyl)oxazol-5-yl)(4-(6-methylbenzo[d]oxazol-2-yl)-6,7-dihydro-1H-imidazo[4,5-c]pyridin-5(4H)-yl)methanone], for the setting “A375 R408W cells”, the AC50 fell in the range of 500 to 1000 nM. On the same count and under the same terms, the value for `CC(C)(O)c1nc(C2CC2)c(C(=O)N2CCc3[nH]cnc3[C@H]2c2nc3cc(F)ccc3o2)o1` [Example 557, (S)-(4-cyclopropyl-2-(2-hydroxypropan-2-yl)oxazol-5-yl)(4-(5-fluorobenzo[d]oxazol-2-yl)-6,7-dihydro-1H-imidazo[4,5-c]pyridin-5(4H)-yl)methanone] was ≤ 500 nM. For the compound `COc1cc(F)c2oc([C@@H]3c4nc[nH]c4CCN3C(=O)c3ocnc3C(F)F)nc2c1` [Example 663, (S)-(4-(difluoromethyl)oxazol-5-yl)(4-(7-fluoro-5-methoxybenzo[d]oxazol-2-yl)-6,7-dihydro-1H-imidazo[4,5-c]pyridin-5(4H)-yl)methanone], under “A375 R408W cells”, the AC50 was ≤ 500 nM. As for `Cc1cccc2oc([C@H]3c4nc[nH]c4CCN3C(=O)c3ccnn3C(F)F)nc12` [Example 450, (R)-(1-(difluoromethyl)-1H-pyrazol-5-yl)(4-(4-methylbenzo[d]oxazol-2-yl)-6,7-dihydro-1H-imidazo[4,5-c]pyridin-5(4H)-yl)methanone], the AC50 (A375 R408W cells) lay within 1000 to 5000 nM. As to `Cc1nc(C(C)(C)C#N)oc1C(=O)N1CCc2[nH]cnc2[C@H]1c1nc2cc(F)ccc2o1` [Example 185, (S)-2-(5-(4-(5-fluorobenzo[d]oxazol-2-yl)-4,5,6,7-tetrahydro-1H-imidazo[4,5-c]pyridine-5-carbonyl)-4-methyloxazol-2-yl)-2-methylpropanenitrile], the AC50 (A375 R408W cells) lay in the range of 500 to 1000 nM.

Take `COc1ccc2oc([C@H]3c4nc[nH]c4CCN3C(=O)c3nnc(-c4cnn(C)c4)o3)nc2c1` [Example 554, (R)-(4-(5-methoxybenzo[d]oxazol-2-yl)-6,7-dihydro-1H-imidazo[4,5-c]pyridin-5(4H)-yl)(5-(1-methyl-1H-pyrazol-4-yl)-1,3,4-oxadiazol-2-yl)methanone]: where the note is “A375 R408W cells”, the AC50 was in the range of 1000 to 5000 nM. On to `CC(C)(O)c1nc(C(=O)N2CCc3[nH]cnc3C2c2nc3ccc(F)cc3o2)no1` (stereo not shown), for which the AC50 under setting [1] is ≥ 5000 nM. Take `Cn1cnc(-c2nnc(C(=O)N3CCc4[nH]cnc4[C@H]3c3nc4c(F)ccc(F)c4o3)o2)c1` [Example 817, (S)-(4-(4,7-difluorobenzo[d]oxazol-2-yl)-6,7-dihydro-1H-imidazo[4,5-c]pyridin-5(4H)-yl)(5-(1-methyl-1H-imidazol-4-yl)-1,3,4-oxadiazol-2-yl)methanone]: where the note is “A375 R408W cells”, the AC50 was 500 to 1000 nM. `O=C(c1nnc(-c2c[nH]nc2C(F)(F)F)o1)N1CCc2[nH]cnc2C1c1nc2cc(F)ccc2o1` (stereo not shown): the AC50 under setting [1] was ≥ 5000 nM. The same measure, in the same setting: for `NCc1ccc2c(C(=O)N3CCc4[nH]cnc4C3c3nc4cc(F)ccc4o3)cnn2c1` (stereo not shown) the value was 1000 to 5000 nM; for `O=C(c1nccs1)N1CCc2[nH]cnc2C1c1nc2ccc(Br)cc2o1` (stereo not shown), ≥ 5000 nM.

Regarding `Cc1cc(F)c2oc([C@@H]3c4nc[nH]c4CCN3C(=O)c3oc(C(C)(C)O)nc3C(F)F)nc2c1` [Example 499, (S)-(4-(difluoromethyl)-2-(2-hydroxypropan-2-yl)oxazol-5-yl)(4-(7-fluoro-5-methylbenzo[d]oxazol-2-yl)-6,7-dihydro-1H-imidazo[4,5-c]pyridin-5(4H)-yl)methanone], the AC50 (A375 R408W cells) is ≤ 500 nM. For the compound `Cc1ccc2nc(C3c4nc[nH]c4CCN3C(=O)c3cnco3)oc2c1` (stereo not shown), the AC50 under setting [1] was 1000 to 5000 nM. As for `CC(C)(O)c1noc(C(=O)N2CCc3[nH]cnc3C2c2nc3c(F)cccc3o2)n1` (stereo not shown), under setting [1], the AC50 was ≥ 5000 nM. Consider `C[C@@H](O)c1nc(C(F)F)c(C(=O)N2CCc3[nH]cnc3[C@@H]2c2nc3cc(F)ccc3o2)o1` [Example 152, (4-(difluoromethyl)-2-((R)-1-hydroxyethyl)oxazol-5-yl)((R)-4-(5-fluorobenzo[d]oxazol-2-yl)-6,7-dihydro-1H-imidazo[4,5-c]pyridin-5(4H)-yl)methanone], for which the AC50 (A375 R408W cells) fell in the range of 1000 to 5000 nM. Consider `O=C(c1ocnc1CC(F)F)N1CCc2[nH]cnc2[C@H]1c1nc2cccc(F)c2o1` [Example 863, (S)-(4-(2,2-difluoroethyl)oxazol-5-yl)(4-(7-fluorobenzo[d]oxazol-2-yl)-6,7-dihydro-1H-imidazo[4,5-c]pyridin-5(4H)-yl)methanone], for which, where the note is “A375 R408W cells”, the AC50 is ≤ 500 nM. Regarding `Cn1cncc1-c1nnc(C(=O)N2CCc3[nH]cnc3C2c2nc3cc(F)ccc3o2)o1` (stereo not shown), the AC50 under setting [1] is ≥ 5000 nM. `O=C([C@@H]1CC1(F)F)N1CCc2[nH]cnc2[C@H]1c1nc2cc(F)ccc2o1` [Example 61, ((S)-2,2-difluorocyclopropyl)((S)-4-(5-fluorobenzo[d]oxazol-2-yl)-6,7-dihydro-1H-imidazo[4,5-c]pyridin-5(4H)-yl)methanone]: for the setting “A375 R408W cells”, the AC50 lay within 500 to 1000 nM.

As to `Cn1cc(C(=O)N2CCc3[nH]cnc3[C@H]2c2nc3cc(F)ccc3o2)c(C(F)F)n1` [Example 95, (S)-(3-(difluoromethyl)-1-methyl-1H-pyrazol-4-yl)(4-(5-fluorobenzo[d]oxazol-2-yl)-6,7-dihydro-1H-imidazo[4,5-c]pyridin-5(4H)-yl)methanone], the AC50 (A375 R408W cells) fell in the range of 500 to 1000 nM.
